Experimental data published in patent publication US9062046B2, “Substituted imidazoquinoline derivatives as kinase inhibitors” (Piramal Enterprises Limited, priority 2011, dated 2015).

Experiments:
[1] = system: A2780 (ovarian cell line); experiment: Cytotoxicity assay (propidium iodide assay), A2780; type: cell-based; conditions: Homo sapiens, A2780 cells, 48 h treatment
Experimental: (§1) The assay was designed as in the reference, Anticancer Drugs, 2002, 13, 1-8, the disclosure of which is incorporated by reference for the teaching of the assay.
(§2) Cells from cell lines A2780 (ovarian cell line) and PC3 (prostate cell line) (both from ATCC) were seeded at a density of 3000 cells/well in a white opaque 96-well plate. Following incubation at 37° C./5% CO2 for a period of 18-24 h, the cells were treated with various concentrations (stock solution was prepared in DMSO and subsequent dilutions were made in media as per ATCC guidelines) of the test compounds for a period of 48 h. At the end of treatment, the culture medium was discarded, the cells were washed with 1×PBS and 200 μl of 7 μg/ml propidium iodide was added to each well. The plates were frozen at −70° C. overnight. For analysis, the plates were warmed to RT, allowed to thaw and were read in PoleStar fluorimeter with the fluorescence setting. The percentage of viable cells in the non-treated set of wells was considered to be 100 and the percentage viability following treatment was calculated accordingly. IC50 values were calculated from graphs plotted using these percentages.

PC3 (prostate cell line) = experiment: Cytotoxicity assay (propidium iodide assay), PC3; type: cell-based; conditions: Homo sapiens, PC-3, PC3 cells, 48 h treatment
Experimental: as §1, §2

## COc1ccc(-n2c(=NC#N)n(C)c3cnc4ccc(-c5cnc(N)c(C(F)(F)F)c5)cc4c32)cn1 [Example 1, N-(8-(6-amino-5-(trifluoromethyl)pyridin-3-yl)-1-(6-methoxypyridin-3-yl)-3-methyl-1H-imidazo[4,5-c]quinolin-2(3H)-ylidene)cyanamide]
[1]
  IC50: ≤ 0.5 µM
PC3 (prostate cell line)
  IC50: ≤ 0.5 µM

## COc1ccc(-n2c(=NC#N)n(C)c3cnc4ccc(-c5ccc(N(C)C)nc5)cc4c32)cn1 [Example 2, N-(8-(6-(dimethylamino)pyridin-3-yl)-1-(6-methoxypyridin-3-yl)-3-methyl-1H-imidazo[4,5-c]quinolin-2(3H)-ylidene)cyanamide]
[1]
  IC50: ≤ 0.5 µM
PC3 (prostate cell line)
  IC50: ≤ 0.5 µM

## COc1ccc(-n2c(=NC#N)n(C)c3cnc4ccc(-c5cnc6ccccc6c5)cc4c32)cn1 [Example 3, N-(1-(6-methoxypyridin-3-yl)-3-methyl-8-(quinolin-3-yl)-1H-imidazo[4,5-c]quinolin-2(3H)-ylidene)cyanamide]
[1]
  IC50: ≤ 0.5 µM
PC3 (prostate cell line)
  IC50: ≤ 0.5 µM

## COc1ccc(-n2c(=NC#N)n(C)c3cnc4ccc(-c5cnc(N)c(C(F)(F)F)c5)cc4c32)c(Cl)n1 [Example 4, N-(8-(6-amino-5-(trifluoromethyl)pyridin-3-yl)-1-(2-chloro-6-methoxypyridin-3-yl)-3-methyl-1H-imidazo[4,5-c]quinolin-2(3H)-ylidene)cyanamide]
[1]
  IC50: ≤ 0.5 µM
PC3 (prostate cell line)
  IC50: ≤ 0.5 µM

## Cn1c(=NC#N)n(-c2ccc(C(C)(C)C#N)cc2)c2c3cc(-c4cnc(N)c(C(F)(F)F)c4)ccc3ncc21 [Example 6, N-(8-(6-amino-5-(trifluoromethyl)pyridin-3-yl)-1-(4-(2-cyanopropan-2-yl)phenyl)-3-methyl-1H-imidazo[4,5-c]quinolin-2(3H)-ylidene)cyanamide]
[1]
  IC50: ≤ 0.5 µM
PC3 (prostate cell line)
  IC50: ≤ 0.5 µM

## Cn1c(=NC#N)n(-c2ccc(C(C)(C)C#N)cc2)c2c3cc(-c4cnc5ccccc5c4)ccc3ncc21 [Example 7, N-(1-(4-(2-cyanopropan-2-yl)phenyl)-3-methyl-8-(quinolin-3-yl)-1H-imidazo[4,5-c]quinolin-2(3H)-ylidene)cyanamide]
[1]
  IC50: ≤ 0.5 µM
PC3 (prostate cell line)
  IC50: ≤ 0.5 µM

## COc1ccc(-n2c(=NC#N)n(C)c3cnc4ccc(-c5cnc(N)c(C(F)(F)F)c5)cc4c32)c(C)n1 [Example 9, N-(8-(6-amino-5-(trifluoromethyl)pyridin-3-yl)-1-(6-methoxy-2-methylpyridin-3-yl)-3-methyl-1H-imidazo[4,5-c]quinolin-2(3H)-ylidene)cyanamide]
[1]
  IC50: ≤ 0.5 µM
PC3 (prostate cell line)
  IC50: ≤ 0.5 µM

## Cn1c(=NC#N)n(-c2ccc(C#N)nc2)c2c3cc(-c4cnc(N)c(C(F)(F)F)c4)ccc3ncc21 [Example 10, N-(8-(6-amino-5-(trifluoromethyl)pyridin-3-yl)-1-(6-cyanopyridin-3-yl)-3-methyl-1H-imidazo[4,5-c]quinolin-2(3H)-ylidene)cyanamide]
[1]
  IC50: ≤ 0.5 µM
PC3 (prostate cell line)
  IC50: ≤ 0.5 µM

## Cn1c(=NC#N)n(-c2ccc3ncccc3c2)c2c3cc(-c4cnc(N)c(C(F)(F)F)c4)ccc3ncc21 [Example 11, N-(8-(6-amino-5-(trifluoromethyl)pyridin-3-yl)-3-methyl-1-(quinolin-6-yl)-1H-imidazo[4,5-c]quinolin-2(3H)-ylidene)cyanamide]
[1]
  IC50: ≤ 0.5 µM
PC3 (prostate cell line)
  IC50: ≤ 0.5 µM

## CNc1ncc(-c2ccc3ncc4c(c3c2)n(-c2ccc(C(C)(C)C#N)cc2)c(=NC#N)n4C)cc1C(F)(F)F [Example 12, N-(1-(4-(2-cyanopropan-2-yl)phenyl)-3-methyl-8-(6-(methylamino)-5-(trifluoromethyl)pyridin-3-yl)-1H-imidazo[4,5-c]quinolin-2(3H)-ylidene)cyanamide]
[1]
  IC50: ≤ 0.5 µM
PC3 (prostate cell line)
  IC50: ≤ 0.5 µM

## COc1ccc(-n2c(=NC#N)n(C)c3cnc4ccc(-c5cnc(OC)c(N)c5)cc4c32)c(OC)c1 [Example 13, N-(8-(5-amino-6-methoxypyridin-3-yl)-1-(2,4-dimethoxyphenyl)-3-methyl-1H-imidazo[4,5-c]quinolin-2(3H)-ylidene)cyanamide]
[1]
  inhibition at 1 µM: ≥ 70%
PC3 (prostate cell line)
  inhibition at 1 µM: ≥ 70%

## COc1ccc(-n2c(=NC#N)n(C)c3cnc4ccc(-c5ccncc5)cc4c32)cn1 [Example 14, N-(1-(6-methoxypyridin-3-yl)-3-methyl-8-(pyridin-4-yl)-1H-imidazo[4,5-c]quinolin-2(3H)-ylidene)cyanamide]
[1]
  inhibition at 1 µM: ≥ 70%
PC3 (prostate cell line)
  inhibition at 1 µM: 30 to 70%

## COc1ccc(-n2c(=NC#N)n(C)c3cnc4ccc(-c5cncc(C(F)(F)F)c5)cc4c32)cn1 [Example 25, N-(1-(6-methoxypyridin-3-yl)-3-methyl-8-(5-(trifluoromethyl)pyridin-3-yl)-1H-imidazo[4,5-c]quinolin-2(3H)-ylidene)cyanamide]
[1]
  inhibition at 1 µM: ≥ 70%
PC3 (prostate cell line)
  inhibition at 1 µM: 30 to 70%

## COc1ccc(-n2c(=NC#N)n(C)c3cnc4ccc(-c5ccc6cccnc6c5)cc4c32)cn1 [Example 26, N-(1-(6-methoxypyridin-3-yl)-3-methyl-8-(quinolin-7-yl)-1H-imidazo[4,5-c]quinolin-2(3H)-ylidene)cyanamide]
[1]
  inhibition at 1 µM: ≥ 70%
PC3 (prostate cell line)
  inhibition at 1 µM: 30 to 70%

## COc1ccc(-n2c(=NC#N)n(C)c3cnc4ccc(-c5ccccc5OC(C)C)cc4c32)cn1 [Example 27, N-(8-(2-isopropoxyphenyl)-1-(6-methoxypyridin-3-yl)-3-methyl-1H-imidazo[4,5-c]quinolin-2(3H)-ylidene)cyanamide]
[1]
  inhibition at 1 µM: < 30%
PC3 (prostate cell line)
  inhibition at 1 µM: < 30%

## COc1ccc(-n2c(=NC#N)n(C)c3cnc4ccc(-c5cccc(Cl)c5)cc4c32)cn1 [Example 28, N-(8-(3-chlorophenyl)-1-(6-methoxypyridin-3-yl)-3-methyl-1H-imidazo[4,5-c]quinolin-2(3H)-ylidene)cyanamide]
[1]
  inhibition at 1 µM: 30 to 70%
PC3 (prostate cell line)
  inhibition at 1 µM: < 30%

## COc1ccc(-n2c(=NC#N)n(C)c3cnc4ccc(-c5cccc(C)c5)cc4c32)cn1 [Example 29, N-(1-(6-methoxypyridin-3-yl)-3-methyl-8-m-tolyl-1H-imidazo[4,5-c]quinolin-2(3H)-ylidene)cyanamide]
[1]
  inhibition at 1 µM: 30 to 70%
PC3 (prostate cell line)
  inhibition at 1 µM: < 30%

## COc1ccc(-n2c(=NC#N)n(C)c3cnc4ccc(-c5ccc(C#N)cc5)cc4c32)cn1 [Example 30, N-(8-(4-cyanophenyl)-1-(6-methoxypyridin-3-yl)-3-methyl-1H-imidazo[4,5-c]quinolin-2(3H)-ylidene)cyanamide]
[1]
  inhibition at 1 µM: < 30%
PC3 (prostate cell line)
  inhibition at 1 µM: < 30%

## COc1ccc(-n2c(=NC#N)n(C)c3cnc4ccc(-c5ccccc5C)cc4c32)cn1 [Example 34, N-(1-(6-methoxypyridin-3-yl)-3-methyl-8-o-tolyl-1H-imidazo[4,5-c]quinolin-2(3H)-ylidene)cyanamide]
[1]
  inhibition at 1 µM: < 30%
PC3 (prostate cell line)
  inhibition at 1 µM: < 30%

## COc1ccc(-n2c(=NC#N)n(C)c3cnc4ccc(-c5cncc6ccccc56)cc4c32)cn1 [Example 35, N-(8-(isoquinolin-4-yl)-1-(6-methoxypyridin-3-yl)-3-methyl-1H-imidazo[4,5-c]quinolin-2(3H)-ylidene)cyanamide]
[1]
  inhibition at 1 µM: ≥ 70%
PC3 (prostate cell line)
  inhibition at 1 µM: 30 to 70%

## COc1ccc(-n2c(=NC#N)n(C)c3cnc4ccc(-c5ccc(OC)c(OC)c5)cc4c32)cn1 [Example 36, N-(8-(3,4-dimethoxyphenyl)-1-(6-methoxypyridin-3-yl)-3-methyl-1H-imidazo[4,5-c]quinolin-2(3H)-ylidene)cyanamide]
[1]
  inhibition at 1 µM: ≥ 70%
PC3 (prostate cell line)
  inhibition at 1 µM: ≥ 70%

## COc1ccc(-n2c(=NC#N)n(C)c3cnc4ccc(-c5ccc(SC(C)C)cc5)cc4c32)cn1 [Example 37, N-(8-(4-(isopropylthio)phenyl)-1-(6-methoxypyridin-3-yl)-3-methyl-1H-imidazo[4,5-c]quinolin-2(3H)-ylidene)cyanamide]
[1]
  inhibition at 1 µM: 30 to 70%
PC3 (prostate cell line)
  inhibition at 1 µM: < 30%

## COc1ccc(-n2c(=NC#N)n(C)c3cnc4ccc(-c5cccc(O)c5)cc4c32)cn1 [Example 38, N-(8-(3-hydroxyphenyl)-1-(6-methoxypyridin-3-yl)-3-methyl-1H-imidazo[4,5-c]quinolin-2(3H)-ylidene)cyanamide]
[1]
  inhibition at 1 µM: ≥ 70%
PC3 (prostate cell line)
  inhibition at 1 µM: 30 to 70%

## COc1ccc(-n2c(=NC#N)n(C)c3cnc4ccc(-c5cnccc5F)cc4c32)cn1 [Example 39, N-(8-(4-fluoropyridin-3-yl)-1-(6-methoxypyridin-3-yl)-3-methyl-1H-imidazo[4,5-c]quinolin-2(3H)-ylidene)cyanamide]
[1]
  inhibition at 1 µM: 30 to 70%
PC3 (prostate cell line)
  inhibition at 1 µM: 30 to 70%

## COc1ccc(-n2c(=NC#N)n(C)c3cnc4ccc(-c5cccc(F)c5)cc4c32)cn1 [Example 40, N-(8-(3-fluorophenyl)-1-(6-methoxypyridin-3-yl)-3-methyl-1H-imidazo[4,5-c]quinolin-2(3H)-ylidene)cyanamide]
[1]
  inhibition at 1 µM: 30 to 70%
PC3 (prostate cell line)
  inhibition at 1 µM: < 30%

## COc1ccc(-n2c(=NC#N)n(C)c3cnc4ccc(-c5cccc(C(F)(F)F)c5)cc4c32)cn1 [Example 41, N-(1-(6-methoxypyridin-3-yl)-3-methyl-8-(3-(trifluoromethyl)phenyl)-1H-imidazo[4,5-c]quinolin-2(3H)-ylidene)cyanamide]
[1]
  inhibition at 1 µM: 30 to 70%
PC3 (prostate cell line)
  inhibition at 1 µM: 30 to 70%

## COc1ccc(-n2c(=NC#N)n(C)c3cnc4ccc(-c5ccc(C)cc5)cc4c32)cn1 [Example 44, N-(1-(6-methoxypyridin-3-yl)-3-methyl-8-p-tolyl-1H-imidazo[4,5-c]quinolin-2(3H)-ylidene)cyanamide]
[1]
  inhibition at 1 µM: 30 to 70%
PC3 (prostate cell line)
  inhibition at 1 µM: < 30%
